# Assay results as given in PubChem BioAssay (NCI).
#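 Five concentrations, 48 hours, 96-well plates. Abbreviation: GI50, concentration required for 50% inhibition of growth. TGI: concentration producing complete growth inhibition.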
# Experiments:
# Experiment in all cases: inhibition of tumour cell growth, NCI panel, 48 h
# MDA-MB-468 breast = tested on: MDA-MB-468 breast
# KM12 colon = tested on: KM12 colon
# SR leukemia = tested on: SR leukemia
# BT-549 breast = tested on: BT-549 breast
# U251 CNS = tested on: U251 CNS
# MCF7 breast = tested on: MCF7 breast
# SK-MEL-2 melanoma = tested on: SK-MEL-2 melanoma
# OVCAR-8 ovarian = tested on: OVCAR-8 ovarian
# MALME-3M melanoma = tested on: MALME-3M melanoma
# SW-620 colon = tested on: SW-620 colon
# HOP-62 NSCLC = tested on: HOP-62 NSCLC
# SK-MEL-28 melanoma = tested on: SK-MEL-28 melanoma
# RXF 393 renal = tested on: RXF 393 renal
# TK-10 renal = tested on: TK-10 renal
# K-562 leukemia = tested on: K-562 leukemia
# CCRF-CEM leukemia = tested on: CCRF-CEM leukemia
# UACC-257 melanoma = tested on: UACC-257 melanoma
# MDA-MB-231 breast = tested on: MDA-MB-231 breast
# MOLT-4 leukemia = tested on: MOLT-4 leukemia
# OVCAR-5 ovarian = tested on: OVCAR-5 ovarian
# SF-295 CNS = tested on: SF-295 CNS
# OVCAR-3 ovarian = tested on: OVCAR-3 ovarian
# DU-145 prostate = tested on: DU-145 prostate
# RPMI-8226 leukemia = tested on: RPMI-8226 leukemia
# PC-3 prostate = tested on: PC-3 prostate
# CAKI-1 renal = tested on: CAKI-1 renal
# MDA-MB-435 = tested on: MDA-MB-435
# HL-60(TB) leukemia = tested on: HL-60(TB) leukemia
# EKVX NSCLC = tested on: EKVX NSCLC
# NCI-H226 lung = tested on: NCI-H226 lung
# SF-539 CNS = tested on: SF-539 CNS
# T-47D breast = tested on: T-47D breast
# HCT-116 colon = tested on: HCT-116 colon
# SF-268 CNS = tested on: SF-268 CNS
# UACC-62 melanoma = tested on: UACC-62 melanoma
# OVCAR-4 ovarian = tested on: OVCAR-4 ovarian
# IGROV1 ovarian = tested on: IGROV1 ovarian
# SN12C renal = tested on: SN12C renal
# HS 578T breast = tested on: HS 578T breast
# SNB-75 CNS = tested on: SNB-75 CNS
# NCI/ADR-RES ovarian = tested on: NCI/ADR-RES ovarian
# HCC-2998 colon = tested on: HCC-2998 colon
# NCI-H460 lung = tested on: NCI-H460 lung
# NCI-H23 lung = tested on: NCI-H23 lung
# UO-31 renal = tested on: UO-31 renal
# SK-OV-3 ovarian = tested on: SK-OV-3 ovarian
# SNB-19 CNS = tested on: SNB-19 CNS
# M14 melanoma = tested on: M14 melanoma
# LOX IMVI melanoma = tested on: LOX IMVI melanoma
# HCT-15 colon = tested on: HCT-15 colon
# SK-MEL-5 melanoma = tested on: SK-MEL-5 melanoma
# A498 renal = tested on: A498 renal
# A549 NSCLC = tested on: A549 NSCLC
# HOP-92 NSCLC = tested on: HOP-92 NSCLC
# NCI-H522 lung = tested on: NCI-H522 lung
# ACHN renal = tested on: ACHN renal
compound,measurement,setting,value
CCN1CCN(Cc2ccc(C(=O)Nc3cccc(Nc4ccc5c(OC)cccc5n4)c3)cc2C(F)(F)F)CC1,GI50,MDA-MB-468 breast,1600 nM
same,TGI,MDA-MB-468 breast,4530 nM
same,GI50,KM12 colon,2200 nM
same,TGI,KM12 colon,5620 nM
same,GI50,SR leukemia,1870 nM
same,TGI,SR leukemia,4670 nM
same,GI50,BT-549 breast,5350 nM
same,TGI,BT-549 breast,17400 nM
same,GI50,U251 CNS,1690 nM
same,TGI,U251 CNS,3470 nM
same,GI50,MCF7 breast,1500 nM
same,TGI,MCF7 breast,3500 nM
same,GI50,SK-MEL-2 melanoma,10700 nM
same,TGI,SK-MEL-2 melanoma,23800 nM
same,GI50,OVCAR-8 ovarian,6780 nM
same,TGI,OVCAR-8 ovarian,18400 nM
same,GI50,MALME-3M melanoma,1440 nM
same,TGI,MALME-3M melanoma,2630 nM
same,GI50,SW-620 colon,1450 nM
same,TGI,SW-620 colon,2730 nM
same,GI50,HOP-62 NSCLC,3670 nM
same,TGI,HOP-62 NSCLC,17600 nM
same,GI50,SK-MEL-28 melanoma,1560 nM
same,TGI,SK-MEL-28 melanoma,2870 nM
same,GI50,RXF 393 renal,1630 nM
same,TGI,RXF 393 renal,5000 nM
same,GI50,TK-10 renal,8670 nM
same,TGI,TK-10 renal,22100 nM
same,GI50,K-562 leukemia,2110 nM
same,TGI,K-562 leukemia,86800 nM
same,GI50,CCRF-CEM leukemia,1970 nM
same,TGI,CCRF-CEM leukemia,5380 nM
same,GI50,UACC-257 melanoma,1510 nM
same,TGI,UACC-257 melanoma,2850 nM
same,GI50,MDA-MB-231 breast,1540 nM
same,TGI,MDA-MB-231 breast,3050 nM
same,GI50,MOLT-4 leukemia,1230 nM
same,TGI,MOLT-4 leukemia,5050 nM
same,GI50,OVCAR-5 ovarian,3280 nM
same,TGI,OVCAR-5 ovarian,12700 nM
same,GI50,SF-295 CNS,1520 nM
same,TGI,SF-295 CNS,2970 nM
same,GI50,OVCAR-3 ovarian,1800 nM
same,TGI,OVCAR-3 ovarian,4580 nM
same,GI50,DU-145 prostate,2550 nM
same,TGI,DU-145 prostate,9250 nM
same,GI50,RPMI-8226 leukemia,2240 nM
same,TGI,RPMI-8226 leukemia,6670 nM
same,GI50,PC-3 prostate,2140 nM
same,TGI,PC-3 prostate,6260 nM
same,GI50,CAKI-1 renal,1460 nM
same,TGI,CAKI-1 renal,3190 nM
same,GI50,MDA-MB-435,1360 nM
same,TGI,MDA-MB-435,2820 nM
same,GI50,HL-60(TB) leukemia,1570 nM
same,TGI,HL-60(TB) leukemia,4840 nM
same,GI50,EKVX NSCLC,4060 nM
same,TGI,EKVX NSCLC,15300 nM
same,GI50,NCI-H226 lung,5520 nM
same,TGI,NCI-H226 lung,18300 nM
same,GI50,SF-539 CNS,1370 nM
same,TGI,SF-539 CNS,2540 nM
same,GI50,T-47D breast,2110 nM
same,TGI,T-47D breast,8140 nM
same,GI50,HCT-116 colon,1450 nM
same,TGI,HCT-116 colon,2640 nM
same,GI50,SF-268 CNS,2170 nM
same,TGI,SF-268 CNS,9910 nM
same,GI50,UACC-62 melanoma,1530 nM
same,TGI,UACC-62 melanoma,2830 nM
same,GI50,OVCAR-4 ovarian,2890 nM
same,TGI,OVCAR-4 ovarian,13000 nM
same,GI50,IGROV1 ovarian,3090 nM
same,TGI,IGROV1 ovarian,11200 nM
same,GI50,SN12C renal,3620 nM
same,TGI,SN12C renal,14800 nM
same,GI50,HS 578T breast,1960 nM
same,TGI,HS 578T breast,6980 nM
same,GI50,SNB-75 CNS,1200 nM
same,TGI,SNB-75 CNS,8390 nM
same,GI50,NCI/ADR-RES ovarian,2280 nM
same,TGI,NCI/ADR-RES ovarian,9030 nM
same,GI50,HCC-2998 colon,1590 nM
same,TGI,HCC-2998 colon,2890 nM
same,GI50,NCI-H460 lung,1470 nM
same,TGI,NCI-H460 lung,2800 nM
same,GI50,NCI-H23 lung,2370 nM
same,TGI,NCI-H23 lung,7030 nM
same,GI50,UO-31 renal,2330 nM
same,TGI,UO-31 renal,9270 nM
same,GI50,SK-OV-3 ovarian,12600 nM
same,TGI,SK-OV-3 ovarian,27200 nM
same,GI50,SNB-19 CNS,1650 nM
same,TGI,SNB-19 CNS,3620 nM
same,GI50,M14 melanoma,1470 nM
same,TGI,M14 melanoma,2720 nM
same,GI50,LOX IMVI melanoma,1450 nM
same,TGI,LOX IMVI melanoma,2650 nM
same,GI50,HCT-15 colon,1580 nM
same,TGI,HCT-15 colon,3290 nM
same,GI50,SK-MEL-5 melanoma,1450 nM
same,TGI,SK-MEL-5 melanoma,2780 nM
same,GI50,A498 renal,11800 nM
same,TGI,A498 renal,24900 nM
same,GI50,A549 NSCLC,2500 nM
same,TGI,A549 NSCLC,11400 nM
same,GI50,HOP-92 NSCLC,1580 nM
same,TGI,HOP-92 NSCLC,5270 nM
same,GI50,NCI-H522 lung,1700 nM
same,TGI,NCI-H522 lung,3300 nM
same,GI50,ACHN renal,1850 nM
same,TGI,ACHN renal,4320 nM
